Experiment: PN001/Part I: safety and tolerability
Type: in vivo, human
Text: Safety was monitored throughout by adverse events, vital signs, and repeated clinical and laboratory evaluations. […] All adverse events were mild or moderate and severity and transient.

SMILES: CC(C)c1ccc(CC(=O)N[C@H](C)c2ccc(OCC(F)(F)F)cn2)cc1 [CX-8998]
- Abnormal physical sensation (20 mg evening): 1 (16.7) n (%)
- At least 1 adverse event (20 mg evening): 6 (100) n (%)
- Dizziness (20 mg evening): 0 n (%)
- Drowsiness (20 mg evening): 2 (33.3) n (%)
- Elevated mood (20 mg evening): 1 (16.7) n (%)
- Euphoric mood (20 mg evening): 3 (50.0) n (%)
- Eye Disorders (20 mg evening): 1 (16.7) n (%)
- Fatigue (20 mg evening): 0 n (%)
- Feeling abnormal (20 mg evening): 0 n (%)
- Floating feeling (20 mg evening): 0 n (%)
- Gastro-intestinal Disorders (20 mg evening): 0 n (%)
- Hangover effect (20 mg evening): 0 n (%)
- Headache (20 mg evening): 5 (83.3) n (%)
- Indifference (20 mg evening): 0 n (%)
- Injury, Poisoning and Procedural Complications (20 mg evening): 2 (33.3) n (%)
- Insomnia (20 mg evening): 1 (16.7) n (%)
- Intoxication (20 mg evening): 2 (33.3) n (%)
- Irritability (20 mg evening): 1 (16.7) n (%)
- Lethargy (20 mg evening): 2 (33.3) n (%)
- Nervous System Disorders (20 mg evening): 6 (100) n (%)
- Paraesthesia (20 mg evening): 1 (16.7) n (%)
- Paraesthesia oral (20 mg evening): 0 n (%)
- Paraesthesia tongue (20 mg evening): 0 n (%)
- Psychiatric Disorders (20 mg evening): 5 (83.3) n (%)
- Racing thoughts (20 mg evening): 0 n (%)
- Relaxed (20 mg evening): 4 (66.7) n (%)
- Sensory disturbance (20 mg evening): 2 (33.3) n (%)
- Vision blurred (20 mg evening): 1 (16.7) n (%)
- Visual disturbance (20 mg evening): 0 n (%)
- Vivid dreams (20 mg evening): 2 (33.3) n (%)
- Abnormal physical sensation (24 mg evening): 0 n (%)
- At least 1 adverse event (24 mg evening): 6 (100) n (%)
- Dizziness (24 mg evening): 1 (16.7) n (%)
- Drowsiness (24 mg evening): 3 (50.0) n (%)
- Elevated mood (24 mg evening): 0 n (%)
- Euphoric mood (24 mg evening): 1 (16.7) n (%)
- Eye Disorders (24 mg evening): 2 (33.3) n (%)
- Fatigue (24 mg evening): 0 n (%)
- Feeling abnormal (24 mg evening): 1 (16.7) n (%)
- Floating feeling (24 mg evening): 1 (16.7) n (%)
- Gastro-intestinal Disorders (24 mg evening): 0 n (%)
- Hangover effect (24 mg evening): 0 n (%)
- Headache (24 mg evening): 6 (100) n (%)
- Indifference (24 mg evening): 0 n (%)
- Injury, Poisoning and Procedural Complications (24 mg evening): 0 n (%)
- Insomnia (24 mg evening): 1 (16.7) n (%)
- Intoxication (24 mg evening): 0 n (%)
- Irritability (24 mg evening): 0 n (%)
- Lethargy (24 mg evening): 1 (16.7) n (%)
- Nervous System Disorders (24 mg evening): 6 (100) n (%)
- Paraesthesia (24 mg evening): 1 (16.7) n (%)
- Paraesthesia oral (24 mg evening): 0 n (%)
- Paraesthesia tongue (24 mg evening): 0 n (%)
- Psychiatric Disorders (24 mg evening): 4 (66.7) n (%)
- Racing thoughts (24 mg evening): 1 (16.7) n (%)
- Relaxed (24 mg evening): 0 n (%)
- Sensory disturbance (24 mg evening): 0 n (%)
- Vision blurred (24 mg evening): 1 (16.7) n (%)
- Visual disturbance (24 mg evening): 0 n (%)
- Vivid dreams (24 mg evening): 2 (33.3) n (%)
- Abnormal physical sensation (any dose): 2 (9.1) n (%)
- At least 1 adverse event (any dose): 19 (86.4) n (%)
- Dizziness (any dose): 2 (9.1) n (%)
- Drowsiness (any dose): 7 (31.8) n (%)
- Elevated mood (any dose): 6 (27.3) n (%)
- Euphoric mood (any dose): 8 (36.4) n (%)
- Eye Disorders (any dose): 9 (40.9) n (%)
- Fatigue (any dose): 2 (9.1) n (%)
- Feeling abnormal (any dose): 4 (18.2) n (%)
- Floating feeling (any dose): 2 (9.1) n (%)
- Gastro-intestinal Disorders (any dose): 4 (18.2) n (%)
- Hangover effect (any dose): 2 (9.1) n (%)
- Headache (any dose): 10 (45.5) n (%)
- Indifference (any dose): 2 (9.1) n (%)
- Injury, Poisoning and Procedural Complications (any dose): 2 (9.1) n (%)
- Insomnia (any dose): 2 (9.1) n (%)
- Intoxication (any dose): 2 (9.1) n (%)
- Irritability (any dose): 2 (9.1) n (%)
- Lethargy (any dose): 3 (13.6) n (%)
- Nervous System Disorders (any dose): 16 (72.7) n (%)
- Paraesthesia (any dose): 2 (9.1) n (%)
- Paraesthesia oral (any dose): 2 (9.1) n (%)
- Paraesthesia tongue (any dose): 2 (9.1) n (%)
- Psychiatric Disorders (any dose): 15 (68.2) n (%)
- Racing thoughts (any dose): 4 (18.2) n (%)
- Relaxed (any dose): 9 (40.9) n (%)
- Sensory disturbance (any dose): 3 (13.6) n (%)
- Vision blurred (any dose): 4 (18.2) n (%)
- Visual disturbance (any dose): 4 (18.2) n (%)
- Vivid dreams (any dose): 11 (50.0) n (%)
- Tolerability (single doses): Single doses up to 16 mg were generally well tolerated

Source: patent publication US11311522B1 (Cavion, Inc., priority 2018, dated 2022)
